Test results from US8957093B2, “N-biphenylmethylindole modulators of PPARG” (The Scripps Research Institute, priority 2011, dated 2015).

Assays:
GST-PPARG-LBD = GST-PPARG-LBD (Homo sapiens (Human), UniProt P37231); test: Lanthascreen PPARG competitive binding assay (Invitrogen, TR-FRET); details: Lanthascreen competitive binding; NA = not active; inc = incomplete curve; read-out: IC50 (nM) Lantha
Procedure: Lanthascreen PPARG Competitive Binding Assay (Invitrogen)
The assay was performed according to manufacturer protocol. A mixture of […], 5 nM Tb-GST-antibody, 5 nM Fluormone Pan-PPAR Green, and serial dilutions of the experimental compound, beginning at 10 μM downwards, was added to wells of black 384-well low-volume plates (Greiner) to a total volume of 18 μL. All dilutions were made in TR-FRET assay buffer C. DMSO at 2% final concentration was used as a no-ligand control. Experiment was performed in triplicate, and incubated for 2 hours in the dark prior to assay read in Perkin Elmer ViewLux ultra HTS microplate reader. FRET signal was measured by excitation at 340 nm and emission at 520 nm for fluorescein and 490 nm for terbium. Fold change over DMSO was calculated using GraphPad Prism Software (La Jolla, Calif.) by calculating 520 nm/490 nm ratio. Graphs were plotted as fold change of FRET signal for compound treatment over DMSO-only control.

[1] = biological target: Gal-4-PPAR (human PPAR LBD fused to GAL4 DNA-binding domain) (Homo sapiens (Human), UniProt P37231); test: GAL4-PPARG LBD / UAS-luciferase transactivation assay in HEK 293T cells; assay type: cell-based; details: for EC50: GAL4 transactivation, HEK 293T cells, NA = not active, read-out: EC50 (nM) GAL4; for activation at 10 µM: HEK-293T, 18 h, read-out: % transactivation at 10 μM (GAL4)
Gal-4-PPAR (human PPAR LBD fused to GAL4 DNA-binding domain), sequence (P37231 238-503): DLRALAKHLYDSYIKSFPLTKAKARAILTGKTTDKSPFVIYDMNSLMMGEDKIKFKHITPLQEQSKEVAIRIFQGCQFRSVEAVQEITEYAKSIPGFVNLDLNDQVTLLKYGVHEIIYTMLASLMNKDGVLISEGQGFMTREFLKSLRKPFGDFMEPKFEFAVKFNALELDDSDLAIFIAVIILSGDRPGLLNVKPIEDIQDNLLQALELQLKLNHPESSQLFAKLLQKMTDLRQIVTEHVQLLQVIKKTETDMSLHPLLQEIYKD

GST-PPARG-LBD, sequence (P37231 238-503): as above

| SMILES | IC50 (GST-PPARG-LBD) | EC50 [1] | activation at 10 µM [1] |
| --- | --- | --- | --- |
| C[C@H](NC(=O)c1ccc2c(ccn2Cc2ccc(-c3ccccc3)cc2)c1)c1ccc([N+](=O)[O-])cc1 [Example 38, (S)-1-([1,1′-Biphenyl]-4-ylmethyl)-N-(1-(4-nitrophenyl)ethyl)-1H-indole-5-carboxamide] | > 1000 nM | – | – |
| C[C@H](NC(=O)c1ccc2c(ccn2Cc2ccc(-c3ccccc3O)cc2)c1)c1ccc([N+](=O)[O-])cc1 [Example 40, (S)-1-((2′-Hydroxy-[1,1′-biphenyl]-4-yl)methyl)-N-(1-(4-nitrophenyl)ethyl)-1H-indole-5-carboxamide] | > 1000 nM | – | – |
| C[C@H](NC(=O)c1ccc2c(ccn2Cc2ccc(-c3ccc(S(C)(=O)=O)cc3)cc2)c1)c1ccc([N+](=O)[O-])cc1 [Example 50, (S)-1-((4′-(Methylsulfonyl)-[1,1′-biphenyl]-4-yl)methyl)-N-(1-(4-nitrophenyl)ethyl)-1H-indole-5-carboxamide] | > 1000 nM | – | – |
| CSc1ccc(-c2ccc(Cn3ccc4cc(C(=O)N[C@@H](C)c5ccc([N+](=O)[O-])cc5)ccc43)cc2)cc1 [Example 51, (S)-1-((4′-(Methylthio)-[1,1′-biphenyl]-4-yl)methyl)-N-(1-(4-nitrophenyl)ethyl)-1H-indole-5-carboxamide] | > 1000 nM | – | – |
| C[C@H](NC(=O)c1ccc2c(ccn2Cc2ccc(-c3cccc(N)c3)cc2)c1)c1ccc([N+](=O)[O-])cc1 [Example 52, (S)-1-((3′-Amino-[1,1′-biphenyl]-4-yl)methyl)-N-(1-(4-nitrophenyl)ethyl)-1H-indole-5-carboxamide] | > 1000 nM | – | – |
| C[C@H](NC(=O)c1ccc2c(ccn2Cc2ccc(-c3cccc(CN)c3)cc2)c1)c1ccc([N+](=O)[O-])cc1 [Example 53, (S)-1-((3′-(Aminomethyl)-[1,1′-biphenyl]-4-yl)methyl)-N-(1-(4-nitrophenyl)ethyl)-1H-indole-5-carboxamide] | > 1000 nM | – | – |
| C[C@H](NC(=O)c1ccc2c(ccn2Cc2ccc(-c3ccccc3CO)cc2)c1)c1ccc([N+](=O)[O-])cc1 [Example 54, (S)-1-((2′-(Hydroxymethyl)-[1,1′-biphenyl]-4-yl)methyl)-N-(1-(4-nitrophenyl)ethyl)-1H-indole-5-carboxamide] | > 1000 nM | – | – |
| C[C@H](NC(=O)c1ccc2c(ccn2Cc2ccc(-c3ccccc3C(=O)OC(C)(C)C)cc2)c1)c1ccc([N+](=O)[O-])cc1 [Example 55, (S)-tert-Butyl 4′-((5-((1-(4-nitrophenyl)ethyl)carbamoyl)-1H-indol-1-yl)methyl)-[1,1′-biphenyl]-2-carboxylate] | > 1000 nM | – | – |
| Cc1ccc(-c2ccc(Cn3ccc4cc(C(=O)N[C@@H](C)c5ccc([N+](=O)[O-])cc5)ccc43)cc2)cc1 [Example 57, (S)-1-((4′-Methyl-[1,1′-biphenyl]-4-yl)methyl)-N-(1-(4-nitrophenyl)ethyl)-1H-indole-5-carboxamide] | > 1000 nM | – | – |
| C[C@H](NC(=O)c1ccc2c(ccn2Cc2ccc(-c3cccc(Cl)c3)cc2)c1)c1ccc([N+](=O)[O-])cc1 [Example 58, (S)-1-((3′-Chloro-[1,1′-biphenyl]-4-yl)methyl)-N-(1-(4-nitrophenyl)ethyl)-1H-indole-5-carboxamide] | > 1000 nM | – | – |
| C[C@H](NC(=O)c1ccc2c(ccn2Cc2ccc(-c3ccc(C(=O)O)cc3)cc2)c1)c1ccc([N+](=O)[O-])cc1 [Example 59, (S)-4′-((5-((1-(4-Nitrophenyl)ethyl)carbamoyl)-1H-indol-1-yl)methyl)-[1,1′-biphenyl]-4-carboxylic acid] | > 1000 nM | – | – |
| C[C@H](NC(=O)c1ccc2c(ccn2Cc2ccc(-c3cccc(C(=O)O)c3)cc2)c1)c1ccc([N+](=O)[O-])cc1 [Example 60, (S)-4′-((5-((1-(4-Nitrophenyl)ethyl)carbamoyl)-1H-indol-1-yl)methyl)-[1,1′-biphenyl]-3-carboxylic acid] | > 1000 nM | – | – |
| C[C@H](NC(=O)c1ccc2c(ccn2Cc2ccc(-c3ccccc3C(=O)O)cc2)c1)c1ccc([N+](=O)[O-])cc1 [Example 61, (S)-4′-((5-((1-(4-Nitrophenyl)ethyl)carbamoyl)-1H-indol-1-yl)methyl)-[1,1′-biphenyl]-2-carboxylic acid] | 646 nM | – | – |
| CCC(NC(=O)c1ccc2c(ccn2Cc2ccccc2-c2ccccc2C(=O)O)c1)c1ccccc1 (stereo not drawn) [Example 68, 2′-((5-((1-phenylpropyl)carbamoyl)-1H-indol-1-yl)methyl)-[1,1′-biphenyl]-2-carboxylic acid] | > 1000 nM | – | – |
| Cc1c(C)n(Cc2ccc(-c3ccccc3C(=O)O)cc2)c2ccc(C(=O)NCc3cccc(CN)c3)cc12 [Example 82, 4′-((5-(3-(aminomethyl)benzylcarbamoyl)-2,3-dimethyl-1H-indol-1-yl)methyl)biphenyl-2-carboxylic acid] | > 1000 nM | – | – |
| Cc1c(C)n(Cc2ccc(-c3ccccc3C(=O)O)cc2)c2ccc(C(=O)N[C@@H](C)c3ccc(N)cc3)cc12 [Example 99, (S)-4′-((5-(1-(4-aminophenyl)ethylcarbamoyl)-2,3-dimethyl-1H-indol-1-yl)methyl)biphenyl-2-carboxylic acid] | 240 nM | – | – |
| Cc1c(C)n(Cc2ccc(-c3ccccc3C(=O)O)cc2)c2ccc(C(=O)NCc3ccc(C(F)(F)F)cc3)cc12 [Example 101, 4′-((2,3-dimethyl-5-(4-(trifluoromethyl)benzylcarbamoyl)-1H-indol-1-yl)methyl)biphenyl-2-carboxylic acid] | 208 nM | – | – |
| COc1ccc(CNC(=O)c2ccc3c(c2)c(C)c(C)n3Cc2ccc(-c3ccccc3C(=O)O)cc2)cc1 [Example 104, 4′-((5-(4-methoxybenzylcarbamoyl)-2,3-dimethyl-1H-indol-1-yl)methyl)biphenyl-2-carboxylic acid] | 7 nM | – | – |
| COc1ccc(CNC(=O)c2ccc3c(c2)c(C)c(C)n3Cc2ccc(-c3ccccc3C(=O)O)cc2)cc1F [Example 111, 4′-((5-(3-fluoro-4-methoxybenzylcarbamoyl)-2,3-dimethyl-1H-indol-1-yl)methyl)biphenyl-2-carboxylic acid] | 13 nM | – | – |
| Cc1c(C)n(Cc2ccc(-c3ccccc3C(=O)O)cc2)c2ccc(C(=O)NCc3ccc(C(F)(F)F)cc3F)cc12 [Example 167, 4′-((5-((2-fluoro-4-(trifluoromethyl)benzyl)carbamoyl)-2,3-dimethyl-1H-indol-1-yl)methyl)-[1,1′-biphenyl]-2-carboxylic acid] | – | 596 nM | 10% |
| Cc1c(C)n(Cc2ccc(-c3ccccc3C(=O)O)cc2)c2ccc(C(=O)NCc3ccc(Cl)cc3Cl)cc12 [Example 168, 4′-((5-((2,4-dichlorobenzyl)carbamoyl)-2,3-dimethyl-1H-indol-1-yl)methyl)-[1,1′-biphenyl]-2-carboxylic acid] | – | 931 nM | 18% |
| CC[C@@H](NC(=O)c1ccc2c(c1)c(C)c(C)n2Cc1ccccc1-c1cccc(C(=O)O)c1)c1ccccc1 [Example 193, (R)-2′-((2,3-dimethyl-5-((1-phenylpropyl)carbamoyl)-1H-indol-1-yl)methyl)-[1,1′-biphenyl]-3-carboxylic acid] | – | 191 nM | 40% |
| CC[C@H](NC(=O)c1ccc2c(c1)c(C)c(C)n2Cc1ccccc1-c1cccc(C(=O)O)c1)c1ccccc1 [Example 194, (S)-2′-((2,3-dimethyl-5-((1-phenylpropyl)carbamoyl)-1H-indol-1-yl)methyl)-[1,1′-biphenyl]-3-carboxylic acid] | – | 793 nM | 18% |
| CC[C@@H](NC(=O)c1ccc2c(c1)c(C)c(C)n2Cc1ccccc1-c1ccc(C(=O)O)cc1)c1ccccc1 [Example 195, (R)-2′-((2,3-dimethyl-5-((1-phenylpropyl)carbamoyl)-1H-indol-1-yl)methyl)-[1,1′-biphenyl]-4-carboxylic acid] | – | 169 nM | 35% |
| Cc1c(C)n(Cc2ccc(-c3ccccc3C(=O)O)cc2)c2ccc(C(=O)N[C@@H](C)c3cccc(OC(C)C)c3)cc12 [Example 199, (S)-4′-((5-((1-(3-isopropoxyphenyl)ethyl)carbamoyl)-2,3-dimethyl-1H-indol-1-yl)methyl)-[1,1′-biphenyl]-2-carboxylic acid] | – | 2750 nM | 10% |
| Cc1c(C)n(Cc2ccc(-c3ccccc3C(=O)O)cc2)c2ccc(C(=O)N[C@@H](C)c3ccc(OC(C)C)cc3)cc12 [Example 201, (S)-4′-((5-((1-(4-isopropoxyphenyl)ethyl)carbamoyl)-2,3-dimethyl-1H-indol-1-yl)methyl)-[1,1′-biphenyl]-2-carboxylic acid] | – | 941 nM | 10% |
| Cc1c(C)n(Cc2ccc(-c3ccccc3C(=O)O)cc2)c2ccc(C(=O)N[C@H]3CCN(C(=O)OCc4ccccc4)C3)cc12 [Example 204, (S)-4′-((5-((1-((benzyloxy)carbonyl)pyrrolidin-3-yl)carbamoyl)-2,3-dimethyl-1H-indol-1-yl)methyl)-[1,1′-biphenyl]-2-carboxylic acid] | – | – | 0% |
| Cc1c(C)n(Cc2ccc(-c3ccccc3C(=O)O)cc2)c2ccc(C(=O)N[C@@H](C)c3ccc(Cl)c(C(F)(F)F)c3)cc12 [Example 222, (S)-4′-((5-((1-(4-chloro-3-(trifluoromethyl)phenyl)ethyl)carbamoyl)-2,3-dimethyl-1H-indol-1-yl)methyl)-[1,1′-biphenyl]-2-carboxylic acid] | – | 193 nM | 5% |
